Data from patent US6706686B2, “Inhibition of histone deacetylase as a treatment for cardiac hypertrophy” (The Regents of the University of Colorado, priority 2001, dated 2004).
Entries after “also recorded” stand apart in the source; their conditions may differ.

Assays:
[1] = test system: CMV-Lac Z reporter in neonatal rat cardiomyocytes; assay: CMV-Lac Z reporter (specificity control); assay type: cell-based; settings: inhibitor alone or together with phenylephrine
Experimental: (§1) FIGS. 3A-D. HDAC inhibitors block the activation of ANF reporter by phenylphrine without cytotoxicity. Neonatal rat cardiomyocytes were co-transfected with a total of 1 μg of the mouse 3 kb ANF promoter fragment and CMV-Lac Z plasmids. (FIG. 3A) The ANF promoter is minimally active in unstimulated cardiomyocytes. […] (FIG. 3B) Lac Z expression by the constitutive promoter CMV. Treatment with HDAC inhibitors augmented CMV activity with and without phenylephrine co-treatment. (FIGS. 3C and 3D) The graphs show the measurements of adenylate kinase activity remains constant in the medium after […] of culturing cardiomyocytes in the absence or presence of hypertrophic stimulants FBS, PE or ET-1.
(§2) Transcription assay. Twenty-four hours after plating, cells were transfected with total of 1 μg/ml for 5 hrs using Lipofectamine Plus reagent (Invitrogen, Carlsbad, Calif.). Transfected cells were incubated 24 hrs then treated for an additional 24 hrs. Cells were lysed and their lysates assayed with the Luciferase Assay System (Promega, Madison, Wis.) for luminescence using Lucysoft 2 luminometer (Rosys Anthos, New Castle, Del.).

[2] = test system: ANF, αSK-actin, αMyHC, βMyHC RNA in cardiomyocytes; assay: RNA dot blot of fetal gene program; assay type: cell-based, rat; settings: phenylephrine 100 μM, TSA 85 nM, sodium butyrate 5 mM, HC-toxin 5 ng/ml
Experimental: FIGS. 5A-B. Treatment of cardiomyocytes with HDAC inhibitors blocks the fetal gene program associated with cardiomyocyte hypertrophy. […] The graphs represent three or more independent experiments.
Dot Blot analysis. Total RNA was isolated from cardiomyocytes that were either untreated, treated with phenylephrine, treated with TSA, or co-treated with phenylephrine and TSA. One microgram of RNA was blotted onto Nitrocellulose (Bio-Rad, Hercules, Calif.) and hybridized at 50° C. for 14 hrs with end-labeled oligos. (ANF, 5′-[…]-3, SEQ ID NO 1; αSK actin5′-[…]-3′, SEQ ID NO2; αMyHC,5′[…]-3′, SEQ ID NO 3; βMyHC5′-[…]-3′, SEQ ID NO 4; GAPDH5′-[…]-3′, SEQ ID NO 5). The blots were washed twice in 2×SSC/0.5% SDS solution and exposed to film (Kodak, Rochester, N.Y.) or phosphoimager (Amersham Bioscience, Sunnyvale, Calif.). The intensity of the hybridization of the probes was measured using ImageQuant® (Amersham Bioscience, Sunnyvale, Calif.).

[3] = test system: ANF promoter in neonatal rat cardiomyocytes; assay: ANF promoter transcription (luciferase) assay; assay type: cell-based; settings: for activation of ANF promoter by phenylephrine: phenylephrine 100 μM, TSA 85 nM, NaBut 5 mM, HC-toxin 5 ng/ml; for ANF promoter activity, inhibitor alone: unstimulated cardiomyocytes
Experimental: as §1
Cardiomyocyte isolation. Hearts were harvested from 15-day timed-pregnant female Sprague-Dawley rats (Harlan, Houston, Tex.). After mincing in phosphate-buffered saline, cardiomyocytes were isolated from successive digestion fractions of 0.1% (w/v) Pancreatin (Sigma, St. Louis, Mo.) solution. Fractions were collected; resuspended in plating medium, pooled; and then plated for 2 hours to separate fibroblasts from cardiomyocyte population. Suspended cells were recollected and plated in 6-well dishes at 1×10^6 cells/well for transfection and immunofluorescence experiments, and 2×10^6 cells in 10 cm dishes for RNA analysis.
as §2

transformed cells = settings: Marks et al. (2000); cited from earlier work
HDAC = settings: Marks et al. (2000); cited from earlier work
[4] = test system: ANF in neonatal cardiomyocytes; assay: ANF chemiluminescence detection, dose response; assay type: cell-based, rat
Experimental: FIGS. 4A-C. […] As in the transfection experiments, phenylephrine (100 µM) induces ANF expression over three-fold. […] (FIGS. 4B and 4C) The graphs show a reduction of the chemiluminent detection of ANF in the culture medium with increasing concentrations of the HDAC inhibitors TSA (FIG. 4B) and sodium butyrate (FIG. 4C) when co-cultured with the hypertrophic stimulants FBS, PE or ET-1.
Chemilumenescence. Neonatal cardiomyocytes were seeded onto 96-well plates and treated for 72 hrs. The cells were washed twice in 1×PBS, fixed in 4% paraformaldehyde/1×PBS, and permeabilized with 0.1% Triton-X100. After blocking, the cells were incubated 1 hr. with 10 μg/ml monoclonal anti-ANF antibody (Biodesign). The wells were washed twice with 1% BSA/1× PBS and then incubated for 1 hr. with goat anti-mouse IgG-Fc-HRP (Jackson Labs, […]) at 1:1000 in 1× PBS/1% BSA. Cells were washed twice with 1% BSA/1×PBS, twice with 1× PBS, then blotted dry. Luminol (Pierce, Rockford, Ill.) was added and the chemiluminescence was detected in a Fusion Plate Reader (Perkin Elmer/Packard).

cardiomyocytes = assay: Protein synthesis (tritiated leucine, S6 ribosomal protein); assay type: cell-based, rat
Experimental: FIG. 6. The effects of TSA treatment on the reorganization of the sarcomeres and protein synthesis. […] The graphs on the right show the content of S6 ribosome protein in cardiomyocytes after 24 hours co-treatment with PE and increasing concentrations of TSA or with serum and increasing concentrations of TSA.
Protein synthesis. Cardiomyocytes were incubated with (1.0 μCi/ml; 172 Ci/mmol sp. activity) tritiated-leucine (ICN Biochemicals, Inc., Irvine, Calif.) in treated RPMI media (Invitrogen, Carlsbad, Calif.). After 6 hrs incubation, the cells were washed twice with 1× PBS, then incubated in 10% TCA on ice for 30 min. Afterwards, the cells were washed twice with 5% TCA, once with water, and then lysed in […]. Lysates were measured in one-sixth volume of scintillation fluid by a scintillation counter (Beckman, Fullerton, Calif.).
S6 Ribosomal protocol. After blocking, cells were incubated in 1% BSA/1× PBS containing 50 μg/ml anti-S6 protein (Cell Signaling, […]) for 1 hr. After washing, the cells were incubated with IgG-HRP (Jackson Labs, […]) at a 1:400 dilution. The cells were then washed twice in 1% BSA/1× PBS, in 1× PBS, then blotted dry. Luminol (Pierce, Rockford, Ill.) was added and the chemiluminescence was detected in a Fusion reader (Perkin-Elmer/Packard).

cultured cardiomyocytes = assay: Adenylate kinase release cytotoxicity assay; assay type: cell-based; settings: increasing doses: TSA up to 100 nM, sodium butyrate up to 25 nM
Experimental: as §1
Inventors then examined whether increasing doses of TSA and sodium butyrate were cytotoxic to cultured cardiomyocytes. To determine cell mortality, the release of adenylate kinase from cardiomyocytes into the culture medium was assayed. This assay is a known measurement for the integrity of the cell membrane: membranes become permeable in dying cells causing the cells release adenylate kinase.

SMILES | transcriptional activity of CMV-Lac Z reporter [1] | phenylephrine-induced endogenous ANF RNA expression [2] | activation of ANF promoter by phenylephrine [3] | ANF promoter activity, inhibitor alone [3] | effect on transformed cells (transformed cells) | other results
C[C@@H]1NC(=O)[C@H]2CCCN2C(=O)[C@H](CCCCCC(=O)[C@@H]2CO2)NC(=O)[C@@H](C)NC1=O [HC-toxin] | increased the transcriptional activity of the CMV-Lac Z reporter | prevented the phenylephrine-induced ANF response; also recorded: blocks the accumulation of ANF message | did block the promoter's activation by phenylephrine treatment completely; also recorded: prevented the activation of the ANF promoter | did not activate the ANF promoter |  | 
O=C(CCCCCCC(=O)Nc1ccccc1)NO [SAHA, suberoylanilide hydroxamic acid] |  |  |  |  | induce growth arrest, differentiation, or apoptotic cell death of transformed cells | 
O=C(CCCCCCC(=O)Nc1cccnc1)NO [pyroxamide, suberoyl-3-aminopyridineamide hydroxyamic acid] |  |  |  |  | induce growth arrest, differentiation, or apoptotic cell death of transformed cells | inhibition of HDAC (HDAC): potent inhibitors of HDAC in vitro and in vivo
CCCC(=O)[O-].[Na+] [sodium butyrate] | increased the transcriptional activity of the CMV-Lac Z reporter | blocks the accumulation of ANF message | did block the promoter's activation by phenylephrine treatment completely | did not activate the ANF promoter |  | minimal concentration that inhibited the hypertrophic response (ANF) of each growth stimulant ([4]; FBS, PE, ET-1): 5 mM; induction of ANF expression by FBS, PE and ET-1 ([4]; increasing concentrations): countered the induction of ANF expression; ANF expression at very low doses ([4]; very low doses (0.2 nM printed for sodium butyrate)): near two-fold increase; phenylephrine-stimulated protein synthesis, 6 hours (cardiomyocytes; 6 hours co-culture with phenylephrine): had little effect on the stimulation of protein synthesis; protein synthesis induced by PE or serum, 24 hrs (cardiomyocytes; 24 hrs co-treatment): antagonized the protein synthesis normally induced by PE or serum in a dose-dependent manner; adenylate kinase in the culture medium (cell death) (cultured cardiomyocytes): did little to increase adenylate kinase; phenylephrine-induced endogenous ANF RNA expression ([2]; listed as NaBut): prevented the phenylephrine-induced ANF response; activation of ANF promoter by phenylephrine ([3]; listed as NaBut): prevented the activation of the ANF promoter
